How the values were obtained:
Format in all cases: in vivo
[1] = test system: signalgrass (broadleaf signalgrass, Brachiaria platyphylla); test: Test D pre-/postemergence plant response
How it was run: (§1)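 Under greenhouse conditions for 14 to 21 days, plants treated pre- or postemergence with surfactant-formulated compound were compared by eye with untreated controls and scored 0–100 (100 = complete control; dash = no result).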

[2] = test system: goosegrass (Eleusine indica); test: Test D pre-/postemergence plant response
How it was run: as §1

[3] = test system: Surinam grass (Brachiaria decumbens); test: Test D pre-/postemergence plant response
How it was run: as §1

[4] = test system: nutsedge (purple nutsedge, Cyperus rotundus); test: Test D pre-/postemergence plant response
How it was run: as §1

kochia (Kochia scoparia) = test: Test D pre-/postemergence plant response
How it was run: as §1

[5] = test system: large crabgrass (Digitaria sanguinalis); test: Test D pre-/postemergence plant response
How it was run: as §1

[6] = test system: Russian thistle (Salsola kali); test: Test D pre-/postemergence plant response
How it was run: as §1

[7] = test system: spanishneedles (Bidens bipinnata); test: Test D pre-/postemergence plant response
How it was run: as §1

[8] = test system: bermudagrass (Cynodon dactylon); test: Test D pre-/postemergence plant response
How it was run: as §1

[9] = test system: bluegrass (annual bluegrass, Poa annua); test: Test D pre-/postemergence plant response
How it was run: as §1

[10] = test system: sunflower (common oilseed sunflower, Helianthus annuus); test: Test B pre-/postemergence plant response; details: Preemergence
How it was run: (§2)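 Visual injury, 0–100 scale (100 = complete control), rated against controls after 13 to 15 days in greenhouse. Pre-emergence: seeds in loam/sand soil, treated at planting. Post-emergence: 1- to 4-leaf plants (2 to 18 cm) in peat/vermiculite medium. Compounds formulated in non-phytotoxic solvent with surfactant.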

[11] = test system: galium (catchweed bedstraw, Galium aparine); test: Test B pre-/postemergence plant response; details: Preemergence
How it was run: as §2

[12] = test system: nightshade (eastern black nightshade, Solanum ptycanthum); test: Test B pre-/postemergence plant response; details: Preemergence
How it was run: as §2

[13] = Postemergence, 31 g ai/ha, scale 0 to 100
[14] = Postemergence, 62 g ai/ha, scale 0 to 100 (0 no effect, 100 complete control)
[15] = Postemergence, 125 g ai/ha, scale 0 to 100 (0 no effect, 100 complete control)
[16] = Postemergence, 16 g ai/ha, scale 0 to 100
[17] = Preemergence, 16 g ai/ha, scale 0 to 100, 0 no effect, 100 complete control
[18] = Preemergence, 31 g ai/ha, scale 0 to 100 (0 no effect, 100 complete control)
[19] = Preemergence, 125 g ai/ha, scale 0 to 100
[20] = Preemergence, 62 g ai/ha, scale 0 to 100
[21] = Postemergence, 31 g ai/ha, scale 0 to 100 (0 no effect, 100 complete control)
[22] = 31 g ai/ha, scale 0 to 100 (0 no effect, 100 complete control)
[23] = 62 g ai/ha, scale 0 to 100 (0 no effect, 100 complete control)
[24] = 125 g ai/ha, scale 0 to 100, 0 no effect, 100 complete control

O=C1CCCC(O)=C1C(=O)c1cnc(-c2ccccc2)n(CC2CCCO2)c1=O (stereo not shown) [Compound 59]
Plant response rating, Signalgrass [1, 13]: 5
Plant response rating, Signalgrass [1, 14]: 10
Plant response rating, Signalgrass [1, 15]: 20
Plant response rating, Signalgrass [1, 16]: 5
Plant response rating, Signalgrass [1, 17]: 0
Plant response rating, Signalgrass [1, 18]: 0
Plant response rating, Signalgrass [1, 19]: 5
Plant response rating, Goosegrass [2, 13]: 20
Plant response rating, Goosegrass [2, 14]: 50
Plant response rating, Goosegrass [2, 15]: 65
Plant response rating, Goosegrass [2, 16]: 20
Plant response rating, Goosegrass [2, 17]: 0
Plant response rating, Goosegrass [2, 18]: 5
Plant response rating, Goosegrass [2, 20]: 20
Plant response rating, Goosegrass [2, 19]: 80
Plant response rating, Surinam Grass [3, 13]: 35
Plant response rating, Surinam Grass [3, 14]: 50
Plant response rating, Surinam Grass [3, 15]: 60
Plant response rating, Surinam Grass [3, 16]: 30
Plant response rating, Surinam Grass [3, 17]: 5
Plant response rating, Surinam Grass [3, 18]: 90
Plant response rating, Surinam Grass [3, 19]: 100
Plant response rating, Nutsedge, Purple [4, 13]: 0
Plant response rating, Nutsedge, Purple [4, 14]: 20
Plant response rating, Nutsedge, Purple [4, 15]: 25
Plant response rating, Nutsedge, Purple [4, 16]: 0
Plant response rating, Nutsedge, Purple [4, 17]: 0
Plant response rating, Nutsedge, Purple [4, 18]: 20
Plant response rating, Nutsedge, Purple [4, 20]: 20
Plant response rating, Nutsedge, Purple [4, 19]: 80
Plant response rating, Kochia (kochia (Kochia scoparia); [13]): 5
Plant response rating, Kochia (kochia (Kochia scoparia); [14]): 20
Plant response rating, Kochia (kochia (Kochia scoparia); [15]): 50
Plant response rating, Kochia (kochia (Kochia scoparia); [16]): 5
Plant response rating, Kochia (kochia (Kochia scoparia); [17]): 0
Plant response rating, Kochia (kochia (Kochia scoparia); [18]): 0
Plant response rating, Kochia (kochia (Kochia scoparia); [20]): 0
Plant response rating, Kochia (kochia (Kochia scoparia); [19]): 0
Plant response rating, Crabgrass, Large [5, 13]: 35
Plant response rating, Crabgrass, Large [5, 14]: 50
Plant response rating, Crabgrass, Large [5, 15]: 70
Plant response rating, Crabgrass, Large [5, 16]: 35
Plant response rating, Crabgrass, Large [5, 17]: 0
Plant response rating, Crabgrass, Large [5, 18]: 35
Plant response rating, Crabgrass, Large [5, 20]: 35
Plant response rating, Crabgrass, Large [5, 19]: 65
Plant response rating, Russian Thistle [6, 15]: 65
Plant response rating, Russian Thistle [6, 18]: 90
Plant response rating, Russian Thistle [6, 19]: 100
Plant response rating, Spanishneedles [7, 13]: 50
Plant response rating, Spanishneedles [7, 14]: 70
Plant response rating, Spanishneedles [7, 15]: 70
Plant response rating, Spanishneedles [7, 16]: 30
Plant response rating, Spanishneedles [7, 17]: 0
Plant response rating, Spanishneedles [7, 18]: 0
Plant response rating, Spanishneedles [7, 19]: 90
Plant response rating, Bermudagrass [8, 21]: 40
Plant response rating, Bermudagrass [8, 14]: 70
Plant response rating, Bermudagrass [8, 15]: 80
Plant response rating, Bermudagrass [8, 16]: 35
Plant response rating, Bermudagrass [8, 17]: 0
Plant response rating, Bermudagrass [8, 18]: 0
Plant response rating, Bermudagrass [8, 20]: 40
Plant response rating, Bermudagrass [8, 19]: 90
Plant response rating, Bluegrass [9, 21]: 0
Plant response rating, Bluegrass [9, 14]: 0
Plant response rating, Bluegrass [9, 15]: 5
Plant response rating, Bluegrass [9, 16]: 0
Plant response rating, Bluegrass [9, 17]: 0
Plant response rating, Bluegrass [9, 18]: 0
Plant response rating, Bluegrass [9, 20]: 15
Plant response rating, Bluegrass [9, 19]: 30
Plant response rating, Sunflower [10, 22]: 55
Plant response rating, Sunflower [10, 23]: 65
Plant response rating, Sunflower [10, 24]: 70
Plant response rating, Galium ([11]; 250 g ai/ha, 0 to 100 scale): 98
Plant response rating, Galium [11, 22]: 0
Plant response rating, Galium [11, 23]: 90
Plant response rating, Galium [11, 24]: 95
Plant response rating, Nightshade [12, 22]: 95
Plant response rating, Nightshade [12, 23]: 98
Plant response rating, Nightshade [12, 24]: 100

Source: patent US8952024B2, “Herbicidal pyrimidone derivatives” (E I du Pont de Nemours and Company, priority 2009, dated 2015)
